In patent US6461997B1, “Triazole sulfones having herbicidal activity” (Monsanto Technology LLC, priority 1999, dated 2002):

Tests used:
[1] = tested on: AGSST (creeping bentgrass); assay: Pre-emergence herbicidal activity, cool season; type: in vivo, Agrostis stolonifera; settings: GR80 = lowest tested rate (300, 100, 30, 10 g/ha) with 80% or greater inhibition; approx. 14 days after treating; 18/13° C.
Experimental: (§1) Tables 5 to 8 summarize results of tests conducted as described below to determine the pre-emergence herbicidal activity, in the form of a GR80 value, of illustrative compounds of this invention. […] Compounds of the invention were typically applied at rates of 300, 100, 30, and 10 g/ha. Where herbicidal activity was evident but 80% inhibition was not achieved at the highest rate tested, an asterisk (*) is shown in the following tables.
(§2) The pre-emergence tests were conducted by the following procedure. Topsoil was sieved to pass through a 1.27 cm screen. Fertilizer was added to the topsoil and the mixture was then sterilized by heating. The topsoil mixture was placed in a pot and compacted to a depth of 1.0 to 1.25 cm from the top of the pot. Seeds of each of several monocotyledonous and dicotyledonous annual plant species were placed on top of the soil. Additional soil was subsequently placed over the seeds to level-fill the pot. A known amount of each test compound dissolved or suspended in an appropriate organic solvent was diluted with a 50:50 mix of acetone and water and applied to the surface of the soil. After treatment the plants were placed in a greenhouse where they received 0.64 cm of overhead irrigation. All subsequent watering consisted of a light overhead mist and/or subirrigation as needed for germination and growth. Tables 5 and 6 below relate to warm season plant species which were placed after pre-emergence treatment in a greenhouse with a 30/21° C. day/night temperature regime. Tables 7 and 8 below relates to cool season plant species placed after pre-emergence treatment in a greenhouse or growth chamber with an 18/13° C. day/night temperature regime.
(§3) Approximately 14 days after planting and treating, the plants were observed and herbicidal efficacy recorded as percent inhibition by comparison with untreated plants.
(§4) The plant species usually regarded as weeds which were utilized in the tests are identified in the tables below according to the following legend, in which “d” indicates a dicotyledonous species and “m” a monocotyledonous species. All monocotyledonous species included in the tests herein are grasses.

[2] = tested on: PANMI (wild proso millet); assay: Pre-emergence herbicidal activity, warm season; type: in vivo, Panicum miliaceum; settings: GR80 = lowest tested rate (300, 100, 30, 10 g/ha) with 80% or greater inhibition; approx. 14 days after treating; 30/21° C.
Experimental: as §1, §2, §3, §4

[3] = tested on: VERPE (creeping speedwell); assay: Pre-emergence herbicidal activity, cool season; type: in vivo, Veronica persicaria; settings: lowest tested rate with 80% or greater inhibition; rates 300, 100, 30, 10 g/ha; about 14 days
Experimental: as §1, §2, §3, §4

[4] = tested on: AMARE (redroot pigweed); assay: Pre-emergence herbicidal activity, warm season; type: in vivo, Amaranthus retroflexus; settings: GR80 = lowest tested rate (300, 100, 30, 10 g/ha) with 80% or greater inhibition; approx. 14 days after treating; 30/21° C.
Experimental: as §1, §2, §3, §4

[5] = tested on: CHEAL (common lambsquarters); assay: Pre-emergence herbicidal activity, warm season; type: in vivo, Chenopodium album; settings: GR80 = lowest tested rate (300, 100, 30, 10 g/ha) with 80% or greater inhibition; approx. 14 days after treating; 30/21° C.
Experimental: as §1, §2, §3, §4

[6] = tested on: SETFA (giant foxtail); assay: Pre-emergence herbicidal activity, warm season; type: in vivo, Setaria faberi; settings: GR80 = lowest tested rate (300, 100, 30, 10 g/ha) with 80% or greater inhibition; approx. 14 days after treating; 30/21° C.
Experimental: as §1, §2, §3, §4

[7] = tested on: SETVI (green foxtail); assay: Pre-emergence herbicidal activity, cool season; type: in vivo, Setaria viridis; settings: GR80 = lowest tested rate (300, 100, 30, 10 g/ha) with 80% or greater inhibition; approx. 14 days after treating; 18/13° C.
Experimental: as §1, §2, §3, §4

[8] = tested on: POLCO (wild buckwheat); assay: Pre-emergence herbicidal activity, cool season; type: in vivo, Polygonum convolvulus; settings: lowest tested rate with 80% or greater inhibition; rates 300, 100, 30, 10 g/ha; about 14 days
Experimental: as §1, §2, §3, §4

[9] = tested on: POROL (common purslane); assay: Pre-emergence herbicidal activity, warm season; type: in vivo, Portulaca oleracea; settings: GR80 = lowest tested rate (300, 100, 30, 10 g/ha) with 80% or greater inhibition; approx. 14 days after treating; 30/21° C.
Experimental: as §1, §2, §3, §4

[10] = tested on: STEME (common chickweed); assay: Pre-emergence herbicidal activity, cool season; type: in vivo, Stellaria media; settings: lowest tested rate with 80% or greater inhibition; rates 300, 100, 30, 10 g/ha; about 14 days
Experimental: as §1, §2, §3, §4

[11] = tested on: GALAP (catchweed bedstraw); assay: Pre-emergence herbicidal activity, cool season; type: in vivo, Galium aparine; settings: lowest tested rate with 80% or greater inhibition; rates 300, 100, 30, 10 g/ha; about 14 days
Experimental: as §1, §2, §3, §4

[12] = tested on: SORHA (johnsongrass (seedling)); assay: Pre-emergence herbicidal activity, warm season; type: in vivo, Sorghum halepense; settings: GR80 = lowest tested rate (300, 100, 30, 10 g/ha) with 80% or greater inhibition; approx. 14 days after treating; 30/21° C.
Experimental: as §1, §2, §3, §4

[13] = tested on: ECHCG (barnyardgrass); assay: Pre-emergence herbicidal activity, warm season; type: in vivo, Echinochloa crus-galli; settings: GR80 = lowest tested rate (300, 100, 30, 10 g/ha) with 80% or greater inhibition; approx. 14 days after treating; 30/21° C.
Experimental: as §1, §2, §3, §4

[14] = tested on: SASKR (russian thistle); assay: Pre-emergence herbicidal activity, cool season; type: in vivo, Salsola kali; settings: lowest tested rate with 80% or greater inhibition; rates 300, 100, 30, 10 g/ha; about 14 days
Experimental: as §1, §2, §3, §4

[15] = tested on: SINAR (wild mustard); assay: Pre-emergence herbicidal activity, cool season; type: in vivo, Sinapis arvensis; settings: lowest tested rate with 80% or greater inhibition; rates 300, 100, 30, 10 g/ha; about 14 days
Experimental: as §1, §2, §3, §4

[16] = tested on: LAMPU (purple deadnettle); assay: Pre-emergence herbicidal activity, cool season; type: in vivo, Lamium purpureum; settings: lowest tested rate with 80% or greater inhibition; rates 300, 100, 30, 10 g/ha; about 14 days
Experimental: as §1, §2, §3, §4

[17] = tested on: DIGSA (large crabgrass); assay: Pre-emergence herbicidal activity, warm season; type: in vivo, Digitaria sanguinalis; settings: GR80 = lowest tested rate (300, 100, 30, 10 g/ha) with 80% or greater inhibition; approx. 14 days after treating; 30/21° C.
Experimental: as §1, §2, §3, §4

[18] = tested on: SOLNI (black nightshade); assay: Pre-emergence herbicidal activity, warm season; type: in vivo, Solanum nigrum; settings: GR80 = lowest tested rate (300, 100, 30, 10 g/ha) with 80% or greater inhibition; approx. 14 days after treating; 30/21° C.
Experimental: as §1, §2, §3, §4

[19] = tested on: CIRAR (canada thistle (seedling)); assay: Pre-emergence herbicidal activity, warm season; type: in vivo, Cirsium arvense; settings: GR80 = lowest tested rate (300, 100, 30, 10 g/ha) with 80% or greater inhibition; approx. 14 days after treating; 30/21° C.
Experimental: as §1, §2, §3, §4

[20] = tested on: BRAPP (broadleaf signalgrass); assay: Pre-emergence herbicidal activity, warm season; type: in vivo, Brachiaria platyphylla; settings: GR80 = lowest tested rate (300, 100, 30, 10 g/ha) with 80% or greater inhibition; approx. 14 days after treating; 30/21° C.
Experimental: as §1, §2, §3, §4

SMILES: CN(C(=O)n1cnc(S(=O)(=O)C(F)(F)C(F)F)n1)C1CCCCC1 [Example 67]
- Pre-emergence activity (GR80) AGSST [1]: 100 g/ha
- Pre-emergence activity (GR80) PANMI [2]: 100 g/ha
- Pre-emergence activity GR80, VERPE [3]: 100 g/ha
- Pre-emergence activity (GR80) AMARE [4]: 300 g/ha
- Pre-emergence activity (GR80) CHEAL [5]: 100 g/ha
- Pre-emergence activity (GR80) SETFA [6]: 300 g/ha
- Pre-emergence activity (GR80) SETVI [7]: 300 g/ha
- Pre-emergence activity GR80, POLCO [8]: 300 g/ha
- Pre-emergence activity (GR80) POROL [9]: 300 g/ha
- Pre-emergence activity GR80, STEME [10]: [empty]
- Pre-emergence activity GR80, GALAP [11]: 300 g/ha
- Pre-emergence activity (GR80) SORHA [12]: 300 g/ha
- Pre-emergence activity (GR80) ECHCG [13]: 300 g/ha
- Pre-emergence activity GR80, SASKR [14]: [empty]
- Pre-emergence activity GR80, SINAR [15]: [empty]
- Pre-emergence activity GR80, LAMPU [16]: [empty]

SMILES: CCN(CC)C(=S)n1cnc(S(=O)(=O)C(F)(F)C(F)F)n1 [Example 70]
- Pre-emergence activity (GR80) AGSST [1]: 300 g/ha
- Pre-emergence activity (GR80) PANMI [2]: 300 g/ha
- Pre-emergence activity GR80, VERPE [3]: [empty]
- Pre-emergence activity (GR80) DIGSA [17]: 300 g/ha
- Pre-emergence activity (GR80) CHEAL [5]: 300 g/ha
- Pre-emergence activity (GR80) SETFA [6]: 300 g/ha
- Pre-emergence activity (GR80) SETVI [7]: 300 g/ha
- Pre-emergence activity GR80, POLCO [8]: 300 g/ha
- Pre-emergence activity (GR80) SOLNI [18]: 300 g/ha
- Pre-emergence activity (GR80) POROL [9]: 300 g/ha
- Pre-emergence activity GR80, STEME [10]: [empty]
- Pre-emergence activity GR80, GALAP [11]: [empty]
- Pre-emergence activity (GR80) CIRAR [19]: 300 g/ha
- Pre-emergence activity GR80, SASKR [14]: 300 g/ha
- Pre-emergence activity GR80, SINAR [15]: 300 g/ha
- Pre-emergence activity GR80, LAMPU [16]: [empty]

SMILES: CCN(CC)C(=S)n1cnc(S(=O)(=O)C(F)(F)C(F)(F)Br)n1 [Example 82]
- Pre-emergence activity (GR80) AGSST [1]: 300 g/ha
- Pre-emergence activity (GR80) PANMI [2]: 300 g/ha
- Pre-emergence activity (GR80) BRAPP [20]: 300 g/ha
- Pre-emergence activity GR80, VERPE [3]: 300 g/ha
- Pre-emergence activity (GR80) CHEAL [5]: 300 g/ha
- Pre-emergence activity (GR80) SETFA [6]: 300 g/ha
- Pre-emergence activity (GR80) SETVI [7]: 100 g/ha
- Pre-emergence activity GR80, POLCO [8]: 300 g/ha
- Pre-emergence activity (GR80) POROL [9]: 30 g/ha
- Pre-emergence activity GR80, STEME [10]: 300 g/ha
- Pre-emergence activity GR80, GALAP [11]: [empty]
- Pre-emergence activity (GR80) SORHA [12]: 300 g/ha
- Pre-emergence activity GR80, SASKR [14]: [empty]
- Pre-emergence activity GR80, SINAR [15]: 300 g/ha
- Pre-emergence activity GR80, LAMPU [16]: 300 g/ha

SMILES: C=CCN(C)C(=O)n1cnc(S(=O)(=O)C(F)(F)Cl)n1 [Example 89]
- Pre-emergence activity (GR80) AGSST [1]: 100 g/ha
- Pre-emergence activity (GR80) PANMI [2]: 300 g/ha
- Pre-emergence activity GR80, VERPE [3]: [empty]
- Pre-emergence activity (GR80) DIGSA [17]: 100 g/ha
- Pre-emergence activity (GR80) SETVI [7]: 100 g/ha
- Pre-emergence activity GR80, POLCO [8]: 100 g/ha
- Pre-emergence activity (GR80) POROL [9]: 100 g/ha
- Pre-emergence activity GR80, STEME [10]: 100 g/ha
- Pre-emergence activity GR80, GALAP [11]: 300 g/ha
- Pre-emergence activity GR80, SASKR [14]: 300 g/ha
- Pre-emergence activity GR80, SINAR [15]: 300 g/ha
- Pre-emergence activity GR80, LAMPU [16]: 100 g/ha
